Source: article PMC10959927, “Platinum iodido drugs show potential anti-tumor activity, affecting cancer cell metabolism and inducing ROS and senescence in gastrointestinal cancer cells” (Communications Biology, 2024)
Several values for one entry are separate records, joined by “and”; a condition that tells them apart may be missing. Equal entries are not always repeated.

Columns and labels:
Type in all cases: cell-based, human
PANC1 cells [1] = assay: Ratio GSH/GSSG, colorimetric kit; details: PANC1, C+ (positive control), relative to Control = 1
Procedure: (§1) GSH and GSSG levels were determined in AGS and PANC1 cells after 3 and 24 h of treatment with the compounds (using H2O2 as a positive control) with the Glutathione Colorimetric Detection Kit (ThermoFisher) following the manufacturer’s instructions. Thirty minutes after adding the Colorimetric Detection Reagent and the Reaction Mixture, the absorbance was read at 405 nm. A standard curve was generated with each assay to interpolate the sample results. To measure GSSG, standards and samples must be diluted with the Sample Diluent containing 2-vinylpyridine.

AGS cells [2] = assay: Ratio GSH/GSSG, colorimetric kit; details: AGS, C+ (positive control), relative to Control = 1
Procedure: as §1

PANC1 cells [3] = assay: ROS detection by confocal microscopy (DHE, MitoSox); details: PANC1, 1 h treatment; H2O2 200 µM, CDDP 10 µM, I5 20 µM, I6 20 µM
Procedure: Tumor cells were seeded at a density of 3 × 10^5 cells in 15 µm 8-well IBIDI plates and incubated overnight. […] Subsequently, cells were stained with 10 μM of dihydroethidium (DHE, cytosolic O2^·- probe, Sigma-Aldrich) or with 5 μM of Mitosox (mitochondrial O2^·- probe, Sigma-Aldrich) for 15–30 min[79] and then visualized on a confocal microscope (Confocal LSM 710 Zeiss, Biomedical Research Institute Alberto Sols, IIBm-CSIC-UAM, Madrid, Spain). The image analysis was realized using the software program Image J.

AGS cells [4] = assay: SA-β-Gal histochemical staining; details: Fig. S4A
Procedure: SA-β-Gal activity was measured following two different approaches. (i) AGS, MKN45 and PANC1 cells (5 × 10^4) were seeded in 24-multiwell dishes and incubated overnight. […] For flow cytometry cell senescence detection, cells were tripsinized, fixed for 15 min with PFA 4% and stained with the CellEvent Senescense Green Flow Cytometry Assay Kit (C10840, Invitrogen) according to manufacturer’s instructions. CellEvent Senescense Green Probe was used at a 1:500 dilution and fluorescence was detected using the filter (Ex488nm/Em530/30) BL1 with a 4-laser Attune NxT Acoustic Cytometer (Thermo Fisher Scientific). […] After 3 h, the treatments were removed, new supplemented medium was added, and cells were incubated for an additional 24 h. Finally, SA-β-Gal staining was performed using the Senescence Cells Histochemical Staining Kit (CS0030-1KT) according to the manufacturer’s instructions.

OO [H2O2, reference compound]
GSH/GSSG (PANC1 cells [1]): 0.5945 and 0.659 and 0.8185 | GSH/GSSG (AGS cells [2]): 0.8614 and 0.8667 and 0.9484 | DHE fluorescence intensity (per cell), cytosolic O2•− (PANC1 cells [3]): 174.023 and 151.84 and 151.685 and 148.486 and 115.72 and 133.113 | Fold change % Senescence (AGS cells [4]): 52.81% and 54.43% and 58.54%
